This passage reports GI50 and TGI results from PubChem BioAssay (NCI).

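All cell lines were grown in 96-well plates and treated with compound for 48 hours. Abbreviation: GI50, concentration required for 50% inhibition of growth. TGI denotes the concentration required for complete inhibition of growth.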

Assay in all cases: growth of human tumour cells (NCI), 48 h
For experiment [1], the system named is BT-549 breast.
In experiment [2] the test system is CAKI-1 renal.
Experiment [3] deals with HL-60(TB) leukemia.
Experiment [4] has as its system KM12 colon.
Experiment [5] has as its system LOX IMVI melanoma.
Experiment [6] relates to PC-3 prostate.
Experiment [7] concerns RXF 393 renal.
Experiment [8] deals with SF-295 CNS.
Experiment [9] relates to SK-OV-3 ovarian.
The subject of experiment [10] is SNB-19 CNS.

As for `COc1ccc(/C=C/C(=O)c2ccc(SC)cc2)cc1OC`, the GI50 in experiment [1] was 2.86 µM; in experiment [2] it was 7.5 µM; in [3] it was 25.7 µM; in [4], 3.9 µM; in experiment [5] it was 4.12 µM; in [6], 11.5 µM. For the same compound, the GI50 in experiment [7] was 12.7 µM; in [8], 6.47 µM; in experiment [9], 34.1 µM; in experiment [10], 21 µM. Further, the TGI in experiment [1] is 6.66 µM; in experiment [2], 25.6 µM; in experiment [3], 79.6 µM; in [4], 22.6 µM; in experiment [5], 15.5 µM; in experiment [6], 25.6 µM. Also, the TGI in experiment [7] was 29.4 µM; in experiment [8] it was 40.2 µM; in experiment [9], above 100 µM; in experiment [10] it was 56.9 µM.

Take `Cc1ccc(-n2c3c(c4c(CN(C)C)c(O)ccc42)CCc2ccccc2C3=O)cc1`: the GI50 in [1] is 14.9 µM; in [2], 17.2 µM; in experiment [3] it was 9.49 µM; in [4] it was 19.3 µM; in experiment [5] it was 15.8 µM; in experiment [6], 17.5 µM. Besides, the GI50 in [7] is 13.6 µM; in [8] it was 18.3 µM; in experiment [9] it was above 100 µM; in experiment [10] it was above 100 µM. Moreover, the TGI in [1] amounted to 29.7 µM; in experiment [2] it was 44.1 µM; in experiment [3], 24.5 µM; in experiment [4] it was 40 µM; in experiment [5], 29.5 µM; in experiment [6], 38.4 µM. Further, the TGI is 28 µM in [7], 35.9 µM in [8], above 100 µM in experiment [9] and above 100 µM in experiment [10].

For the compound `COc1ccc2c(=O)c3ccoc3n(CC=C(C)C)c2c1`, the TGI in experiment [1] was above 100 µM; in experiment [2] it was 9.83 µM; in experiment [3], above 96.6 µM; in experiment [4], above 100 µM; in experiment [5], above 100 µM; in [6], above 100 µM. Also, the TGI is above 81.1 µM in [7], above 100 µM in experiment [8], above 100 µM in experiment [9] and above 100 µM in experiment [10].

As for `COc1cc2cc(Oc3ccc(NC(=O)Nc4cccc(C(F)(F)F)c4)cc3)c(C)nc2cc1OC`, the GI50 in experiment [1] is 1.43 µM; in experiment [2], 1.32 µM; in [3] it was 1.56 µM; in experiment [4] it was 1.42 µM; in experiment [5], 1.84 µM; in [6], 1.39 µM. Moreover, the GI50 in experiment [7] was 1.63 µM; in experiment [8], 1.13 µM; in experiment [9], 2.06 µM; in experiment [10] it was 2.19 µM. Further, the TGI in [1] was determined as 6.18 µM; in experiment [2], 4.29 µM; in [3], 3.91 µM; in [4], 5.92 µM; in experiment [5] it was 6.61 µM; in experiment [6], 5.49 µM. Besides, the TGI was 4.97 µM in [7], 3.59 µM in experiment [8], 10.6 µM in [9] and 15 µM in [10].

`Cc1c(-c2c(-c3ccc(F)o3)sc3ncnc(O[C@H](Cc4ccccc4OCc4ccnn4CC(F)(F)F)C(=O)O)c23)ccc(OCCN2CCN(C)CC2)c1Cl`: the GI50 in [1] is 2.13 µM; in experiment [2] it was 6.21 µM; in experiment [3], 0.0173 µM; in [4], 4 µM; in [5], 3.03 µM; in [6], 3.16 µM. Further, the GI50 was 2.77 µM in experiment [7], 3.55 µM in experiment [8], 5.74 µM in [9] and 4.7 µM in [10]. Besides, the TGI was found to be 5.65 µM in experiment [1]; 19.2 µM in experiment [2]; 0.195 µM in [3]; 7.99 µM in experiment [4]; 6.8 µM in [5]; 7.28 µM in experiment [6]. Moreover, the TGI was 6.1 µM in experiment [7], 7.55 µM in experiment [8], 14.8 µM in experiment [9] and 12.9 µM in experiment [10].

With `Nc1c(Br)cc(Br)c2c1[nH]c(=O)c1ccccc12`, the GI50 in experiment [1] is 7.05 µM; in experiment [2], 3.69 µM; in experiment [3] it was above 100 µM; in experiment [4] it was above 100 µM; in experiment [5] it was 20.5 µM; in experiment [6] it was 14.4 µM. Also, the GI50 was 4.7 µM in experiment [7], 3.1 µM in experiment [8], 2.85 µM in experiment [9] and 10.2 µM in experiment [10]. Moreover, the TGI was 41 µM in [1]; 21.3 µM in experiment [2]; above 100 µM in experiment [3]; above 100 µM in experiment [4]; above 100 µM in [5]; above 100 µM in experiment [6]. Besides, the TGI in experiment [7] was 22.1 µM; in experiment [8], 10.2 µM; in [9], 7.81 µM; in experiment [10] it was 57.5 µM.

Consider `O=C(/C=C/c1cccnc1)NCCCCC1CCCN(C(=O)c2ccccc2)C1` (stereo not drawn), for which the TGI in experiment [1], in experiment [2], in experiment [3], in [4], in experiment [5] and in experiment [6] was above 100 µM in each case. Moreover, the TGI was above 100 µM in experiment [7], above 87.1 µM in experiment [8], above 100 µM in experiment [9] and above 100 µM in experiment [10]. In addition, the GI50 in [2] was 9 µM; in experiment [3] it was 44.7 µM; in experiment [4], below 0.0357 µM; in [5], 5.67 µM; in experiment [6], 1.47 µM; in experiment [7], above 100 µM. Further, the GI50 in experiment [8] was below 0.0474 µM; in experiment [9], above 91.7 µM.

Regarding `COC(=O)c1c2c(c(C)[n+]([O-])c1C)C(=O)C=C(NCc1ccc(F)c(Cl)c1)C2=O`, the GI50 is 1.01 µM in experiment [1]; 0.0559 µM in [2]; 0.27 µM in experiment [3]; 0.0515 µM in [4]; 0.0258 µM in experiment [5]; 0.245 µM in experiment [6]. For the same compound, the GI50 in [7] is 1.13 µM; in experiment [8] it was 0.231 µM; in experiment [9], 1.51 µM; in experiment [10] it was 0.801 µM. For the same compound, the TGI in experiment [1] is 2.43 µM; in experiment [2] it was 1.9 µM; in experiment [3], 0.895 µM; in [4], 1.58 µM; in experiment [5] it was 1.35 µM; in experiment [6], 4.02 µM. Besides, the TGI in experiment [7] is 2.46 µM; in experiment [8], 1.48 µM; in experiment [9] it was 3.38 µM; in [10], 2.07 µM.
